By IC50 is commonly meant the point on the concentration scale where inhibition reaches its midpoint. The inhibition is the percentage by which the read-out fell short of the control.

The target of data set [1] is CBP (Homo sapiens, UniProt Q92793). The experiment in a line: HAT in vitro assay, 10-dose IC50, CBP. It is filed as biochemical. Conditions: substrate Histone H3, 3 μM Acetyl-CoA; read-out: Compound IC50 CBP. Here is the method:
For HAT in vitro assay, MC2884 activity was also tested in vitro and IC50 was calculated as indicated in the scheme. […] Reactions were carried out at 3 μM Acetyl-CoA. Empty cells indicate no inhibition or compound activity that could not be fit to an IC50 curve.

Data set [2] is described as follows: Body weight of leukemia-xenografted mice. The data set is classed as in vivo. Conditions: 1 mg/kg i.p. three times weekly, 16 days post-xenograft; control mice 94%. Here is the method:
Xenograft studies using NB4 and U937-AML cells were performed in NOG SCID mice under specific pathogen–free conditions. Cells (0.2 × 10^6 in 100 µL) were injected intravenously (retro orbital vein). Injected mice were randomly assigned to receive intra-peritoneal MC2884 (1 mg/kg) or vehicle for two weeks (8 doses) (10 mice per group). All animal procedures were performed in accordance with protocols approved by the local Committee for Animal Experimentation and with the permission of the Italian Health Ministry (n° 626/2015). At 16 days after injection, mice were sacrificed and the femurs and spleens were collected. Bone marrow (BM) and spleen cells were analyzed by FACS. To avoid non-specific stain, cells were mixed with mouse IgG and incubated with indicated antibodies for 30’. The mixture was depleted of erythrocytes and fixed (BD Pharmingen). […] Tumor growth was monitored by weekly bioluminescence imaging (BLI) acquisitions using an IVIS 3D Imaging System (Caliper Alameda, USA). To quantify bioluminescence, the integrated fluxes of photons (photons per s) within each area of interest were determined using the Living Images Software Package 3.2 (Caliper, Alameda, USA). […] Efficacy of drug treatment was assessed as inhibition of BLI emission comparing those MC2884 treated mice group and vehicle groups.

In data set [3] the test system is neuroblastoma SHSY5Y cells. The experiment in a line: Cell death induction in SHSY5Y cells. Particulars: 3 μM, 48 h. The data set is classed as cell-based. Here is the method: When tested in neuroblastoma SHSY5Y cells at tetrahydro-4H -pyran-4-one MC2912 failed in inducing
3 μM for 48 h, MC2884 and its analogues furnished cell death in SHSY5Y cells, whereas its thio-analogue
(Supplementary SAR Table 1). In general, the SHSY5Y similarly to what observed in NB4 cells.
than NB4 cells. Anyway, also in this cell line the death in both cell lines such as MC2910, 2912, 2909,
(MC2909), and bis 3,5-dibromophenyl (MC2910) were acetylation and EZH2 deregulation (SAR Figure 2). In […]
3-phenyl-1-propan-1-one chain at N1 (MC3187), which 3).

In data set [4] the target is T1, CYP3A4 (Homo sapiens, UniProt P08684).
T1 construct: from tissue; host or cells: human liver microsomes
The data set can be described thus: Cytochrome P450 inhibition, CYP3A4. The data set is classed as in vitro ADME. Conditions: probe midazolam (2.5 µM), human liver microsomes, observed only at 25 μM. Here is the method:
This provided a dose of 2 mg free base material/kg when Cytochrome p450 inhibition (5 isoform iC50 administered iv in a 5 mL/kg dosing volume. determination) mouse terminal ip pK study ADME-Tox Cytochrome P450 inhibition of Compound MC2884 was given ip at a dose of 2 mg/kg MC2884 using human liver microsomes as an estimation to a group of 24 normally fed male CD1 mice in a 10 mL/ of in vitro metabolism. kg injection volume. Terminal blood samples (> 230 μL) MC2884 (0.1 μM–25 μM) was incubated with were taken under CO2 from groups of 3 mice at each of 8 human liver microsomes and NADPH in the presence time-points post dose (0.083, 0.25, 0.5, 1, 2, 4, 8 and 24 h) of a cytochrome P450 isoform-specific probe substrate. and placed into heparinized tubes. […]
All samples were stored at −20° C measuring the formation of a fluorescent metabolite. […]
Cyp2C19 inhibition (0.1 mg/mL) and NADPH (1 mM) in the presence of the probe substrate midazolam (2.5 μM) for 5 min at Six test compound samples at concentrations 37° C. […] For the CYP1A incubations, the reactions microsomes (0.5 mg/mL) and NADPH (1 mM) in the were terminated by methanol, and the formation of the presence of the probe substrate mephenytoin (25 μM) metabolite, resorufin, was monitored by fluorescence for 60 min at 37° C. […]
Background: Microsomes from liver hold many membrane-bound enzymes, among them those of drug oxidation.

Sequence of CBP (Q92793 whole entry): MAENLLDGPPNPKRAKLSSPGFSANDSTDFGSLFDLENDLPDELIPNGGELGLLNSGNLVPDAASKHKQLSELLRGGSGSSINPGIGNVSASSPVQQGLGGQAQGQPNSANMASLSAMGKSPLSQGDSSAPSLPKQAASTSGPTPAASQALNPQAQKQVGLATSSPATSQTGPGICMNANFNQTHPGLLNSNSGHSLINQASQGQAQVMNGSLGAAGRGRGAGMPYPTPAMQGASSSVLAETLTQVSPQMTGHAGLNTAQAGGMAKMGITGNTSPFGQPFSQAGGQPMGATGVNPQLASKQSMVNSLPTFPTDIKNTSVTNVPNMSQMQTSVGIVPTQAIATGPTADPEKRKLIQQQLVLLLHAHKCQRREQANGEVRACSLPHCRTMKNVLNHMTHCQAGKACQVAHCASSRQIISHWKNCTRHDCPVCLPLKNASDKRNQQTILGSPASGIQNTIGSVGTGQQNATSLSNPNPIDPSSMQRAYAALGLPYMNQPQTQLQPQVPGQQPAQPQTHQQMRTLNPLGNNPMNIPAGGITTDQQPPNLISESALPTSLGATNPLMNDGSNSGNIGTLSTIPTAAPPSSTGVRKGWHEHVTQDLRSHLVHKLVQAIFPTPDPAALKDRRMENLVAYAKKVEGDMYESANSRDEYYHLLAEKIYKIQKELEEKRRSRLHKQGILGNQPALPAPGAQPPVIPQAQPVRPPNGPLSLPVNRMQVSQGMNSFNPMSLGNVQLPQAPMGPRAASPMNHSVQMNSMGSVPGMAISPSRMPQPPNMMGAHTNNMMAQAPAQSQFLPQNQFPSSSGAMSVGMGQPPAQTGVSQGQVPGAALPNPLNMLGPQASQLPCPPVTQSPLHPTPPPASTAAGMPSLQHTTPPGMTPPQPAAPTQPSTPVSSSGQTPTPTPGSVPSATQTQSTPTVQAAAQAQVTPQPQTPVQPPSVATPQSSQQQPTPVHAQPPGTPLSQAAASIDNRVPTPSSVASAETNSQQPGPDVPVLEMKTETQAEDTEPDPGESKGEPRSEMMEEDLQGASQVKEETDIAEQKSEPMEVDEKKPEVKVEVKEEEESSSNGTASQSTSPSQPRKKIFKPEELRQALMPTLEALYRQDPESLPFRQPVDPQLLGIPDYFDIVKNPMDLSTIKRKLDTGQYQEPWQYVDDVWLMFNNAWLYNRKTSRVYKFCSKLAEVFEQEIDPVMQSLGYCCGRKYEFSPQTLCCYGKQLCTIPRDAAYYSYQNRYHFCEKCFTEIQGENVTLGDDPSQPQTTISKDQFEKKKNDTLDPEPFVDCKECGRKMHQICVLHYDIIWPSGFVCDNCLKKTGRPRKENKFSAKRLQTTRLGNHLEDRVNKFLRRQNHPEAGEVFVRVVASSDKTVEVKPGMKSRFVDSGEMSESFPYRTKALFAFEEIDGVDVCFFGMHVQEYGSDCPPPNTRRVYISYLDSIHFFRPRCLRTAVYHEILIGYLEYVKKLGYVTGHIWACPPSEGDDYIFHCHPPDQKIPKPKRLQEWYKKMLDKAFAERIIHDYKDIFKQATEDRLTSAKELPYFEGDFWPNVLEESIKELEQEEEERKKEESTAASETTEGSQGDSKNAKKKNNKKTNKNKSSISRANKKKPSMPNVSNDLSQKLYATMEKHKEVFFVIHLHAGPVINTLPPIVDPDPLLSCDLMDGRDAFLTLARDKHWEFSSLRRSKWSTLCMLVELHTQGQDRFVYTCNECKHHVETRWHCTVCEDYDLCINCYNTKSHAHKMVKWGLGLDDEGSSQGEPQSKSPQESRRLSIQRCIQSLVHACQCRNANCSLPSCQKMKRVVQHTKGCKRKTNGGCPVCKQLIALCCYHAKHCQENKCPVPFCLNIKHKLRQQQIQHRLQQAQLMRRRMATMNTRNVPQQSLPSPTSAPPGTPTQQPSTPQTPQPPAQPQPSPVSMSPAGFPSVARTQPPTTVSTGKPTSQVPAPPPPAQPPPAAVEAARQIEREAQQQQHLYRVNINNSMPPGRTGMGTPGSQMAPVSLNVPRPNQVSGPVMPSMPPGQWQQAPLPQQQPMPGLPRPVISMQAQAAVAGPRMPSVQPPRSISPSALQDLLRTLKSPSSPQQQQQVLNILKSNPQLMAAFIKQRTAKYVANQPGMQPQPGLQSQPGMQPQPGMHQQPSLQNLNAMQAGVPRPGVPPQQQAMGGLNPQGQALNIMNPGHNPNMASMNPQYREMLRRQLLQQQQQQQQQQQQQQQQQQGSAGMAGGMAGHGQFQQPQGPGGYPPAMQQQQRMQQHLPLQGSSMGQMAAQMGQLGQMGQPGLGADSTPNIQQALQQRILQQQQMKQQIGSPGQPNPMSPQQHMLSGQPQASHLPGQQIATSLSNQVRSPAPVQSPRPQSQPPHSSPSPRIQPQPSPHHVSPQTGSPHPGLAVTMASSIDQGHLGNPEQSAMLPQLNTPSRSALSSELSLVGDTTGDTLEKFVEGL
T1 sequence (P08684 whole entry): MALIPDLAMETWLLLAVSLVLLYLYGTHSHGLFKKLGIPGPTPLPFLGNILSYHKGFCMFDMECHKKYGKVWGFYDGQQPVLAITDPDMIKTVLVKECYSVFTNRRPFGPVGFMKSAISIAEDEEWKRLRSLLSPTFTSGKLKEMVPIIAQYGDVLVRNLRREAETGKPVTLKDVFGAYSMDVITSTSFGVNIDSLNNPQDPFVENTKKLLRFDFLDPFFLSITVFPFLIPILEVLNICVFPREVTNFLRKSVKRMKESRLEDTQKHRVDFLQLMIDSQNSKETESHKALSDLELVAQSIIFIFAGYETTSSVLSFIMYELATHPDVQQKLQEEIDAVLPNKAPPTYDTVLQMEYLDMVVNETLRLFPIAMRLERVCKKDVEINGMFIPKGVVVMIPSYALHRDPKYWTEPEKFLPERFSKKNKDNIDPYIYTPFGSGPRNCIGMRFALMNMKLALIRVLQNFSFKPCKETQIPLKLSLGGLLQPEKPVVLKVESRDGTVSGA

On to `O=C1/C(=C/c2cccc(Br)c2)CN(Cc2ccccc2)C/C1=C\c1cccc(Br)c1` [MC2884], for which, in data set [1], the IC50 came out at 3.27 µM. Moreover, the “normalized weight, % of initial weight” value in data set [2] is listed as 90%. In addition, the “% Cell death SHSY5Y cells” value in data set [3] came to 19.1%. This molecule had an inhibition at 5 min, 25 µM in data set [4] of 45%.

For the origin of these results see article PMC5986654, “Combined HAT/EZH2 modulation leads to cancer-selective cell death” (Oncotarget, 2018).
